Assay results taken from paper PMC11513923, “Discovery of ZLC491 as a Potent, Selective, and Orally Bioavailable CDK12/13 PROTAC Degrader” (Journal of Medicinal Chemistry, 2024).

Molecular target: CDK12 (Homo sapiens, UniProt Q9NYV4)
Assay: TMT-labeled quantitative proteomics in MDA-MB-231 cells
Format: cell-based
Design: endogenous in cells; host or cells: MDA-MB-231
Settings: 8 h
Method: The global proteomic selectivity of ZLC491 was investigated by using the tandem mass tag (TMT) labeled mass-spectrometry. […] CDK13 was not detected in either degrader treatment groups or DMSO control groups, likely due to its insufficient cellular expression for mass spectrometry detection.
Figure 5 ZLC491 degraded CDK12/13 with high selectivity. (A) Global proteomic analysis of ZLC491 in MDA-MB-231 cells after 8 h treatment of DMSO or 2 μM ZLC491; (B) mass-spec quantification of CDKs changes; (C) immunoblotting of target protein degradation in samples for proteomic analysis.
MDA-MB-231 cells were seeded at 8 × 10^5 cells in 6 cm dishes 24 h before treating with 2 μM ZLC491 or DMSO in quadruplicate or triplicate for 8 h. Cell lysates were prepared by washing cells twice with cold PBS and adding 180 μL lysis buffer (10 mM HEPES, pH 7.0, 1% (w/v) SDS, 2 mM MgCl·6H2O supplemented with 0.1% BeyoZonase (Beyotime)) per dish. Samples were quantified using a micro-BCA protein assay kit (Thermo Fisher Scientific) and 600 μg of each sample was processed and digested using the filter aided sample preparation (FASP) method followed by alkylation with iodoacetamide and digestion with trypsin. The samples were then desalted using Oasis HLB C18 SPE cartridge column (Waters, WAT094225). The peptides were lyophilized and reconstituted, then 25 μg peptides of each sample were labeled with TMT 11-plex Isobaric Label Reagent Set (Thermo Fisher Scientific) as the manufacturer’s instructions. After labeling, the peptides from the 11 samples were pooled together. […]
The fractions were analyzed sequentially on an Orbitrap Fusion Lumos Mass Spectrometer (Thermo Scientific) coupled to a NanoLC-1200 UHPLC system (Thermo Scientific) with C18 capillary column. […] MS3 precursor were fragmented by HCD and analyzed with Orbitrap at NCE 65, AGC 1E5, resolution 60000.
The raw MS data files for all 11 fractions were searched against the Uniprot-Human-Canonical database by Proteome Discoverer 2.0 for protein identification and TMT reporter ion quantitation. […]

Chain of CDK12 (Q9NYV4 whole entry): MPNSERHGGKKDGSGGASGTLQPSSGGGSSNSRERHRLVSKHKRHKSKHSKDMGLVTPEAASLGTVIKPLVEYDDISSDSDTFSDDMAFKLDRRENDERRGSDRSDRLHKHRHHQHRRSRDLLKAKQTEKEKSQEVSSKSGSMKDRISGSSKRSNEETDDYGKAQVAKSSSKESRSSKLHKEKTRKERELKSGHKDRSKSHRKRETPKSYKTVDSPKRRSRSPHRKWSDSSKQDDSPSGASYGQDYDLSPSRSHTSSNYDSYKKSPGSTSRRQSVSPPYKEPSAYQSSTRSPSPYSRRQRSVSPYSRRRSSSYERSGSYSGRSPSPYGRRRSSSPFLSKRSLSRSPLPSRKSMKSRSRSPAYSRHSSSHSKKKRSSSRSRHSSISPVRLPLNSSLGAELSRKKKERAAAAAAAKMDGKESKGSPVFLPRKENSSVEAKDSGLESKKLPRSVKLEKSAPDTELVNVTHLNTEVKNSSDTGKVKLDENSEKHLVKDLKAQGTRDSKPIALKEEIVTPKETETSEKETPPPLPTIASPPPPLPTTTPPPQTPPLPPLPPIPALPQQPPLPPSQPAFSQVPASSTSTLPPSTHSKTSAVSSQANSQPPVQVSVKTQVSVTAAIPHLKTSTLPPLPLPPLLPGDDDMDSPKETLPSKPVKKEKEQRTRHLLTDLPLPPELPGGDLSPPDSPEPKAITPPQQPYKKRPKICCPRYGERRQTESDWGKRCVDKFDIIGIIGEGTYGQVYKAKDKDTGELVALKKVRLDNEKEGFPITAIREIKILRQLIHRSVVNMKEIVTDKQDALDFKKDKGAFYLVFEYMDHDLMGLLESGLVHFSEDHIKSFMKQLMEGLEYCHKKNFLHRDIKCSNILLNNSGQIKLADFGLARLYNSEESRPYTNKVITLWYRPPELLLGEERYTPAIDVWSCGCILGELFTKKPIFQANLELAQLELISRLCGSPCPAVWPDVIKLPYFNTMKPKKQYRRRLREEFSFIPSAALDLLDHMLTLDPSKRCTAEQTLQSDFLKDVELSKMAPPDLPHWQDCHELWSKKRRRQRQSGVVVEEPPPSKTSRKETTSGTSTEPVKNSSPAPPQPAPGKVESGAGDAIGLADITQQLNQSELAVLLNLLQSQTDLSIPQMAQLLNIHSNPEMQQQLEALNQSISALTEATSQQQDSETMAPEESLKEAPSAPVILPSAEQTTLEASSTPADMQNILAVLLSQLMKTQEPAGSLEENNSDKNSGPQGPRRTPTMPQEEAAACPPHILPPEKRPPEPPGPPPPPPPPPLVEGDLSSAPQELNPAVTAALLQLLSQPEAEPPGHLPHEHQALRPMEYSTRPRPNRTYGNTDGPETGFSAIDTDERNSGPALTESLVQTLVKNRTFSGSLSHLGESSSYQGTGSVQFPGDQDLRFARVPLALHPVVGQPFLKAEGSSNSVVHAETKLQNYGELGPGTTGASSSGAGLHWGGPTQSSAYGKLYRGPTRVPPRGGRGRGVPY
Chain of CDK12 (O75909 whole entry partner): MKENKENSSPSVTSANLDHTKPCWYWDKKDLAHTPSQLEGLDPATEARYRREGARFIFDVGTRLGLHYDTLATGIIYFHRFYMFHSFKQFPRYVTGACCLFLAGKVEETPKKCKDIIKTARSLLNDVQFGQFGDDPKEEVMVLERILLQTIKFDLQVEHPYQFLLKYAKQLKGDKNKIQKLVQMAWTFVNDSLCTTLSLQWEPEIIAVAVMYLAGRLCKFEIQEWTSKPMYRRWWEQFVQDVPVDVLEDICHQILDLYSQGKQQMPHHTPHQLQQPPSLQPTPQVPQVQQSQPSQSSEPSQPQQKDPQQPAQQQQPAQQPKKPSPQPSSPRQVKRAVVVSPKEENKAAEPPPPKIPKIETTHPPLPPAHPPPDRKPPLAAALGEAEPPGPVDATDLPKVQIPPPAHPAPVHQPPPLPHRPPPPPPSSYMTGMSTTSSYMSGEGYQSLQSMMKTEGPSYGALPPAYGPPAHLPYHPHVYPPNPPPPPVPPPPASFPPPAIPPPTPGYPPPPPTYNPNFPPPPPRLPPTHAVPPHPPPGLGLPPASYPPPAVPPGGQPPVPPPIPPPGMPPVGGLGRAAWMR

**Q.** What does the source list for `N#Cc1ccc(N[C@H]2CC[C@H](N(C(=O)NCc3ccccc3)c3ccc(N4CCN(C5CCN(c6cc7c(cc6F)C(=O)N(C6CCC(=O)NC6=O)C7=O)CC5)CC4)cc3)CC2)nc1` (stereo partly drawn) [ZLC491, 3-Benzyl-1-((1r,4r)-4-((5-cyanopyridin-2-yl)amino)cyclohexyl)-1-(4-(4-(1-(2-(2,6-dioxopiperidin-3-yl)-6-fluoro-1,3-dioxoisoindolin-5-yl)piperidin-4-yl)piperazin-1-yl)phenyl)urea]?
**A.** FC_4-91 (CDK12) (2 μM ZLC491 vs DMSO): 0.249; CDK12 level in global proteomics (2 μM): significantly decreased; selectivity among CDKs in global proteomics (2 μM): selective for CDK12 over other CDKs
